From ChEMBL document CHEMBL3988442, “University of Dundee, Small-Polar-MMV Screening Library” (2021)
Where “and” joins values, the source holds several entries; their conditions need not be identical. Equal values may be shown once.

molecular target: ClpP1P2 (Mycobacterium tuberculosis (strain ATCC 25618 / H37Rv), UniProt P9WPC3+P9WPC5); assay: in vitro assay to detect presence of AMC directly proportional to the activity of ClpP1P2. GHDDI collaboration.; type: functional; settings: not given
Sequence (P9WPC5 whole entry): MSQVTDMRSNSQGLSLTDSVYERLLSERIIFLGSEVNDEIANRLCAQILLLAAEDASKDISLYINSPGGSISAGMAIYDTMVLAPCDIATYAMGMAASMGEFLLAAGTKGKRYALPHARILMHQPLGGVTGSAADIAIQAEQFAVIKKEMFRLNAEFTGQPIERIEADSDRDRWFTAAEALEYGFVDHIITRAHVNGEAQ
Sequence (P9WPC3 whole entry): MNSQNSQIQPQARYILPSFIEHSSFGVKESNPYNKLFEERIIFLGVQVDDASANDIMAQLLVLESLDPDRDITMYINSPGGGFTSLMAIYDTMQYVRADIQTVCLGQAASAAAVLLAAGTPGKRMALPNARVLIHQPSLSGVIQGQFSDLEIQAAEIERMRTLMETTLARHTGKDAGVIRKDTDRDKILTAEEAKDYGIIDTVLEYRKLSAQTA

Structure (SMILES) | IC50 [µM]
CCn1cc(-c2cc(-c3cc(CN(C)C)cs3)nc(N)c2C#N)c(C)n1 | > 100

molecular target: Polyketide synthase Pks13 (Mycobacterium tuberculosis (strain ATCC 25618 / H37Rv), UniProt I6X8D2); assay: Mycobacterium tuberculosis Polyketide synthase 13 Thioesterase (PKS13); type: functional; settings: not given
Sequence (I6X8D2 whole entry): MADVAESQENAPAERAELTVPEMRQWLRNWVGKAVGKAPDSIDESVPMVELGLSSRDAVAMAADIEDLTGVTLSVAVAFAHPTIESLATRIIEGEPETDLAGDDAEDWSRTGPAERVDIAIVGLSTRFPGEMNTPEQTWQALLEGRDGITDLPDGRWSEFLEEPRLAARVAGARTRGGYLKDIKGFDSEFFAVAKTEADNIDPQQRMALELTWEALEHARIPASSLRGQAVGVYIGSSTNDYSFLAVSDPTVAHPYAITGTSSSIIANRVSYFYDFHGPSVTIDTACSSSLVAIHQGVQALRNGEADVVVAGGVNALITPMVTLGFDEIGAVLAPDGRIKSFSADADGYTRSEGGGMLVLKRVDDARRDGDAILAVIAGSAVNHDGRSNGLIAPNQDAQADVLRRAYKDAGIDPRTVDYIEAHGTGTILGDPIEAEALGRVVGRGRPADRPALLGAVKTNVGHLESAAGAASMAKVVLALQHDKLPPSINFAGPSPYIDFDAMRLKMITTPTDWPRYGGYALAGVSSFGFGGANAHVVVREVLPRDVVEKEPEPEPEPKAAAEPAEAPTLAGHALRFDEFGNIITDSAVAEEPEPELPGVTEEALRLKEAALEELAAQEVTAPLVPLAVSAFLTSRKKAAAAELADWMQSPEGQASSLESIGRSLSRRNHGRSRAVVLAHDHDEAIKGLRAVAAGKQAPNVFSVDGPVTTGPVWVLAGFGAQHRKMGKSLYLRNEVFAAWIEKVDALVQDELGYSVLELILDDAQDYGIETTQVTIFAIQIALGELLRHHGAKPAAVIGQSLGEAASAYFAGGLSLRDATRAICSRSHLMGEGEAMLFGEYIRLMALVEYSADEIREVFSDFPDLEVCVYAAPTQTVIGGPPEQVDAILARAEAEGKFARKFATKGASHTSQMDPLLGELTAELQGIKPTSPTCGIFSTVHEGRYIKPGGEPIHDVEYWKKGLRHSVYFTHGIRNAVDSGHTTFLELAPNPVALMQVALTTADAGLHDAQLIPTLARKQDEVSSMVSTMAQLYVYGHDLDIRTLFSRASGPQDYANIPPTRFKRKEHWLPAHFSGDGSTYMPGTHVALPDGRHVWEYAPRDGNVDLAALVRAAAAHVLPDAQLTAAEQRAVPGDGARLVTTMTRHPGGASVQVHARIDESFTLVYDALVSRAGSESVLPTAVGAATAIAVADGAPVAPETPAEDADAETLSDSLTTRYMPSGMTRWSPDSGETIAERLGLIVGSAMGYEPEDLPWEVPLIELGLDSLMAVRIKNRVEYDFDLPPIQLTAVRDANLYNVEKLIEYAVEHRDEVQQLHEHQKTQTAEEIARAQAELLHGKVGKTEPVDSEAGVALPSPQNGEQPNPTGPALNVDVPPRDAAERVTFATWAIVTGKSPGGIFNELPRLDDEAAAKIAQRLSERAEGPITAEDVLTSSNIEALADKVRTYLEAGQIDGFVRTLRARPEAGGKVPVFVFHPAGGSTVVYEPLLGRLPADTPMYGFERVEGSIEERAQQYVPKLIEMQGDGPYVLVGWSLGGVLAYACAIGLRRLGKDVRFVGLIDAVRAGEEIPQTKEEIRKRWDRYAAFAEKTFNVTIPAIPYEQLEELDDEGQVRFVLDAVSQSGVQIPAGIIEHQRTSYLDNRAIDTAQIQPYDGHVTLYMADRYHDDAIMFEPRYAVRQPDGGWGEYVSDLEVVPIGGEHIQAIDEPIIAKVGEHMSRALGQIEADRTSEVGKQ

Structure (SMILES) | IC50
O=C1[C@H]2CC[C@H](CN(c3ncnc4ccsc34)C2)N1CC1CC1 | > 100 µM
CCn1cc(-c2cc(-c3cc(CN(C)C)cs3)nc(N)c2C#N)c(C)n1 | 24.7 µM and 11 µM

tested on: not listed separately; assay: microbe, parasite or virus in culture; settings: Mycobacterium tuberculosis, 96 h, read-out: pIC50 (converted)

Structure (SMILES) | IC50 [µM]
O=C1[C@H]2CC[C@H](CN(c3ncnc4ccsc34)C2)N1CC1CC1 | > 50.1

tested on: not listed separately; assay: microbe, parasite or virus in culture; settings: Mycobacterium tuberculosis, 72 h, read-out: pIC50 (converted)

Structure (SMILES) | IC50 [µM]
O=C1[C@H]2CC[C@H](CN(c3ncnc4ccsc34)C2)N1CC1CC1 | > 50.1

tested on: Mycobacterium tuberculosis; assay: Cornell M. t heat shock assay; type: functional, organism-based; settings: not given

Structure (SMILES) | pIC50
Cc1cc(C)n(CC2CCCN2CC(=O)Nc2cc(C(C)C)no2)n1 (stereo not given) | 4.348 and 4.706
Oc1cc(C2CCCN(Cc3cccs3)C2)nc(-c2ccccn2)n1 (stereo not given) | 4.835 and 5.179
Cc1cc(-c2cnc(NC3CCCC3)nc2-c2ccc(C)o2)on1 | 4.052
c1cc(CN2CCCCC2c2ccc(Nc3cnccn3)nc2)ccn1 (stereo not given) | < 4 and < 4.31
COc1cc(C(=O)Nc2nc(C)no2)ccc1OC(F)F | 4.585
CC1CCCN(c2ncc(-c3ccccc3F)c(-c3nccn3C)n2)C1 (stereo not given) | 4.289 and 4.7
CCOc1cccc2c1OCC(C(=O)NS(=O)(=O)c1c(C)noc1C)=C2 | < 4
Cc1ccc(O)c(CN(CCCn2ccnc2)Cc2ccc(C)s2)c1.O=C(O)CC(O)(CC(=O)O)C(=O)O | 4.427
COc1ccc(CN2CCc3c(nc(-c4ccccn4)[nH]c3=O)C2)cc1 | 4.829 and 5.147
COCCCNC(=O)CN(C)C(=O)c1cc(Cl)ccc1O | < 4
COc1cc(C(=O)Nc2nc(C)no2)cc(OC)c1Br | 4.518
Cc1ccc(CN(CCCn2ccnc2)Cc2c(F)cccc2F)s1.O=C(O)CC(O)(CC(=O)O)C(=O)O | 4.654
Cc1noc(NC(=O)c2ccccc2)n1 | 4.405
CCCN1CCC(c2cc(CCOc3ccc(C(F)(F)F)cc3)[nH]n2)C1 (stereo not given) | < 4 and 4.339
O=C1CO[C@H]2CN(Cc3cccc4[nH]ccc34)C[C@@H]2N1C1CCOCC1 | 4.298
CN(C)S(=O)(=O)N1CCCCCC1c1cc(-c2ccc(F)cc2)no1 (stereo not given) | 4.075

same assay, conditions: Mycobacterium tuberculosis

Structure (SMILES) | IC50 [µM]
CCNC(=O)[C@@H]1C[C@H](NC(=O)Cn2ccnc2)CN1Cc1ccsc1 | > 100
COc1ccccc1C(C)N(C)Cc1nc2c(cnn2C)c(=O)[nH]1 (stereo not given) | > 100
Cc1cc(NCc2ccco2)nc2[nH]nc(N)c12 | > 100
Cc1[nH]ccc1C(=O)N1CCOCC12CCCC2 | > 100
CNc1cc(C2CN(Cc3scnc3C)CCO2)nc(C)n1 (stereo not given) | > 100
COc1ccccc1CN1CCc2c(nc(-c3ccccn3)[nH]c2=O)C1 | 3.35
Cc1cnn(CC2CCCN2Cc2nc3ccccc3c(=O)[nH]2)c1 (stereo not given) | 17.9
O=C(Cc1c[nH]c2ccccc12)N1CCC(Nc2ccccc2)CC1 | > 100
CC1(c2ccccc2)CCCN(Cc2cncn2C2CC2)C1 (stereo not given) | 45.7
CSc1ccc(CNC(c2ccc(F)cc2)c2nccn2C)cc1 (stereo not given) | 32.5
Cc1cc2ccccc2n1CCC(=O)N1CCN(C)CC1C(N)=O (stereo not given) | > 100
O=C(Nc1ccnc2ccnn12)c1ccc(N2CCC(O)CC2)cc1 | 74.1
O=c1[nH]c(CCN2CCCC2Cn2cncn2)nc2ccccc12 (stereo not given) | 34.3
NCC1CCC(c2c(C(=O)NCCO)sc3ccccc23)CC1 (stereo not given) | > 100
CCOc1cccc2c1OCC(=O)N(c1ccc(N(C)C)cc1)C2 | 44.1
CSc1nccc(-c2cccc(-c3ccn(CC4COCCO4)n3)c2)n1 (stereo not given) | 40.3
Cc1cc(O)cc(=O)n1CCCC(=O)Nc1n[nH]c2cc(Br)ccc12 | > 100
Cc1cccn2cc(CN3CCCC(c4noc(C5CC5)n4)C3)nc12 (stereo not given) | 46.5
CC(C)c1nc(N2CCC(N3CCCCCC3)CC2)c2cnn(C)c2n1 | 52.5
Cc1cc(C)cc(CNC(c2ccccc2)c2nccn2C)c1 (stereo not given) | 4.29
CCn1nc(C)c(CNC(=O)c2nnc3ccc(Cl)cc3n2)c1C | 17.3
CN1CCN(C(=O)c2cnsn2)c2ccc(F)cc21 | 67.4

Structure (SMILES) | IC50 [µM]
COc1cccc(S(=O)(=O)NC(=O)CCC2CCCC2)c1 | > 100
CCOC(=O)C(C)Nc1cccc(COCc2ccco2)c1 (stereo not given) | > 100
COc1cccc2sc(N3CCN(C(=O)c4cc(C)on4)CC3)nc12 | > 100
COC(=O)[C@H](CCSC)NC(=O)Cn1ccc2c(Cl)cccc21 | 70.7
Cc1cc(-c2cnc(NC3CCCC3)nc2-c2ccc(C)o2)on1 | > 100
Cc1c(CN(C)c2cc(C3CCCNC3)ncn2)[nH]c2ccccc12 (stereo not given) | > 100
CC(C)c1ncc2c(n1)CN(CCCc1nc3ccccc3o1)CC2 | > 100
Cn1ccnc1C(NCc1ccccc1)c1ccc(F)cc1 (stereo not given) | > 100
Cc1ccc(CNC(c2ccccc2)c2nccn2C)cc1 (stereo not given) | 19.9
COc1cccc(CN2CCCC2c2cncc(Nc3nncs3)n2)c1 (stereo not given) | 26.9
O=C(c1cc2cc(I)ccc2[nH]1)N1CCC(Nc2cccnn2)CC1 | 48.7
COc1ccc(OCc2cc(C(=O)N3CCCCO3)n[nH]2)c(Cl)c1 | > 100
Cc1ccc(C2CCCN2S(=O)(=O)N(C)CCc2ccccn2)o1 (stereo not given) | > 100
COc1ccc(CNC(Cc2ccsc2)c2ccc(C)cn2)cc1OC (stereo not given) | 25.6
CC(=O)N1CCC[C@@H](NCc2c[nH]c3ccccc23)[C@@H]1c1ccc(C)s1 | > 100
COc1cc(CNC(c2ccccc2)c2nccn2C)cc(OC)c1 (stereo not given) | 2.41
CC(Cn1cccn1)NCc1csc(COc2ccc(F)cc2)n1 (stereo not given) | 17.2
CC1c2ccc(F)cc2CCN1C(=O)c1[nH]c(=O)[nH]c(=O)c1N (stereo not given) | > 100
COc1cccc(C(NCc2ccc(SC)cc2)c2nccn2C)c1 (stereo not given) | 6.39
O=C(NCC(O)c1ccsc1)Nc1cccs1 (stereo not given) | 67.5
COc1ccccc1C(NCc1ccc(SC)cc1)c1nccn1C (stereo not given) | 48.8
c1ccc(CCN2CCCC2c2cncc(Nc3nncs3)n2)cc1 (stereo not given) | 25.5

Structure (SMILES) | IC50 [µM]
Cc1cc(O)cc(=O)n1CCCC(=O)Nc1n[nH]c2cccc(F)c12 | > 100
CCN1c2ccc(-c3cncn3CC(=O)NC(C)(C)C)cc2CC1C (stereo not given) | > 100
Cc1cc(NCc2ccccc2)nc2[nH]nc(N)c12 | 79.8
Cn1ccnc1-c1nc(NC2CCCC2)ncc1-c1cccc(F)c1 | 40.3
COc1cc(C(=O)Nc2nc(C)no2)ccc1OC(F)F | 41.3
Cc1cccc(CNC(Cc2ccsc2)c2nccs2)n1 (stereo not given) | 49.9
CC(CCSc1ccccc1)N1CCN(C(=O)c2cccs2)CC1 (stereo not given) | > 100
Cc1ccccc1OC1CCN(CC(=O)Nc2cn(C)nc2C)CC1 | > 100
Cc1cc(N2CCOCC2)ccc1NC(C)c1nc(C(C)C)no1 (stereo not given) | > 100
COc1ccc(N2CCC(NCc3csc(C(C)C)n3)CC2)cc1 | > 100
COc1ccc(CCNCc2c(C)nn(C)c2N(C)C)cc1OC | > 100
CCOc1cccc2c1OCC(C(=O)NS(=O)(=O)c1c(C)noc1C)=C2 | 69.3
c1nnc(Nc2cncc(C3CCCN3CC3CC3)n2)s1 (stereo not given) | 29.8
CNC(=O)C1(C)CN(Cc2cn(C)c3ccc(F)cc23)CCO1 (stereo not given) | > 100
CCCNC(=O)C(C)n1nc(-c2ccc(C)o2)cc(N)c1=O (stereo not given) | > 100
CCN1CCN(c2ccc(NC(C)c3nc(C(C)C)no3)c(C)c2)CC1 (stereo not given) | > 100
CC(C)Cn1nc(-c2ccc(C(=O)O)cc2)cc1-c1ccc(F)cc1 | 97.1
O=c1[nH]c(CCN2CCCC2Cn2cccn2)nc2ccccc12 (stereo not given) | 47.5
CCOc1ncccc1NC(=O)N1CCN(c2ccc(O)cc2)CC1 | > 100
COc1ccc(CNC(Cc2ccsc2)c2ncccc2C)cc1OC (stereo not given) | > 49
Cc1ccc(O)c(CN(CCCn2ccnc2)Cc2ccc(C)s2)c1.O=C(O)CC(O)(CC(=O)O)C(=O)O | 42.9
O=C(CCC(=O)N1CCC(c2noc3cc(F)ccc23)CC1)NC1CC1 | > 100

Structure (SMILES) | IC50 [µM]
CCOc1ccccc1-c1cc(N)[nH]n1 | 26.4
COCCCNC(=O)CN(C)C(=O)c1cc(Cl)ccc1O | 87.8
Cc1cc(Nc2ccc(F)cn2)cc(C2CCN(Cc3ncc[nH]3)C2)n1 (stereo not given) | > 100
COCC(=O)N1CCCC1c1cccc(Nc2ncc(C)s2)n1 (stereo not given) | > 100
COc1cc(C(=O)Nc2nc(C)no2)cc(OC)c1Br | 21
CCC(=O)N1CCN(C(=O)Cn2cccn2)CC1 | 22.2
O=C(c1cncs1)N1CCCC1c1ccn[nH]1 (stereo not given) | > 100
Cc1ccccc1C1CCN(CCn2cc(-c3cccc(O)c3)nn2)C1 (stereo not given) | 78.7
Cc1cc(-c2cnc(NCc3ccccn3)nc2C(C)C)on1 | > 100
c1ccc2nc(CN3CCCC3c3noc(C4CC4)n3)ccc2c1 (stereo not given) | 23.8
c1nnc(Nc2cncc(C3CCCN3)n2)s1 (stereo not given) | 6.43
Cc1ccc(CN(CCCn2ccnc2)Cc2c(F)cccc2F)s1.O=C(O)CC(O)(CC(=O)O)C(=O)O | 23.6
Cn1c(CCN2CCN(CCc3ccccc3)CC2)nc2ccccc21 | > 100
Cc1cnc(NC(=O)c2csc(NCC(C)C)n2)s1 | 1.99
Cc1noc(NC(=O)c2ccccc2)n1 | 62.6
NC(=O)NC(=O)CCN1CCN(c2nccs2)CC1 | 35.1
O=C1CO[C@H]2CN(Cc3cccc4[nH]ccc34)C[C@@H]2N1C1CCOCC1 | > 100
CN(C)S(=O)(=O)N1CCCCCC1c1cc(-c2ccc(F)cc2)no1 (stereo not given) | > 100
Cc1ccc(CNC(c2cccc(F)c2)c2nccn2C)o1 (stereo not given) | > 100
CC(C)Oc1ncccc1CNC(=O)c1ccccn1 | > 100

tested on: Wolbachia pipientis; assay: Anti-Wolbachia Cell-Based Screen; type: functional; settings: not given

Structure (SMILES) | pIC50
O=C1[C@H]2CC[C@H](CN(c3ncnc4ccsc34)C2)N1CC1CC1 | 5.348

same assay, conditions: Wolbachia pipientis

Structure (SMILES) | IC50 [µM]
O=C1[C@H]2CC[C@H](CN(c3ncnc4ccsc34)C2)N1CC1CC1 | 5.55
CCn1cc(-c2cc(-c3cc(CN(C)C)cs3)nc(N)c2C#N)c(C)n1 | > 10
